Data reported in PMC8333425, “Discovery of a dual Ras and ARF6 inhibitor from a GPCR endocytosis screen” (Nature Communications, 2021).

Key:
Experiment in all cases: KINOMEscan kinase binding assay
[1] = target: T1, 384 kinases from the human genome (Homo sapiens, UniProt P48730); details: kinase CSNK1D (Entrez CSNK1D)
T1 construct: purchased Eurofin/DiscoverX
In short: (§1)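 Competition binding (KINOMEscan) across 384 human kinases with compound at 10 µM. Ligand binding was expressed relative to DMSO (100%) as the average of duplicates from one experiment. S(10) selectivity score was derived.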

[2] = target: T2, 384 kinases from the human genome (Homo sapiens, UniProt P53355); details: kinase DAPK1 (Entrez DAPK1)
T2 construct: purchased Eurofin/DiscoverX
In short: as §1

[3] = target: T3, 384 kinases from the human genome (Homo sapiens, UniProt O76039); details: kinase CDKL5 (Entrez CDKL5)
T3 construct: purchased Eurofin/DiscoverX
T3 sequence (O76039 whole entry): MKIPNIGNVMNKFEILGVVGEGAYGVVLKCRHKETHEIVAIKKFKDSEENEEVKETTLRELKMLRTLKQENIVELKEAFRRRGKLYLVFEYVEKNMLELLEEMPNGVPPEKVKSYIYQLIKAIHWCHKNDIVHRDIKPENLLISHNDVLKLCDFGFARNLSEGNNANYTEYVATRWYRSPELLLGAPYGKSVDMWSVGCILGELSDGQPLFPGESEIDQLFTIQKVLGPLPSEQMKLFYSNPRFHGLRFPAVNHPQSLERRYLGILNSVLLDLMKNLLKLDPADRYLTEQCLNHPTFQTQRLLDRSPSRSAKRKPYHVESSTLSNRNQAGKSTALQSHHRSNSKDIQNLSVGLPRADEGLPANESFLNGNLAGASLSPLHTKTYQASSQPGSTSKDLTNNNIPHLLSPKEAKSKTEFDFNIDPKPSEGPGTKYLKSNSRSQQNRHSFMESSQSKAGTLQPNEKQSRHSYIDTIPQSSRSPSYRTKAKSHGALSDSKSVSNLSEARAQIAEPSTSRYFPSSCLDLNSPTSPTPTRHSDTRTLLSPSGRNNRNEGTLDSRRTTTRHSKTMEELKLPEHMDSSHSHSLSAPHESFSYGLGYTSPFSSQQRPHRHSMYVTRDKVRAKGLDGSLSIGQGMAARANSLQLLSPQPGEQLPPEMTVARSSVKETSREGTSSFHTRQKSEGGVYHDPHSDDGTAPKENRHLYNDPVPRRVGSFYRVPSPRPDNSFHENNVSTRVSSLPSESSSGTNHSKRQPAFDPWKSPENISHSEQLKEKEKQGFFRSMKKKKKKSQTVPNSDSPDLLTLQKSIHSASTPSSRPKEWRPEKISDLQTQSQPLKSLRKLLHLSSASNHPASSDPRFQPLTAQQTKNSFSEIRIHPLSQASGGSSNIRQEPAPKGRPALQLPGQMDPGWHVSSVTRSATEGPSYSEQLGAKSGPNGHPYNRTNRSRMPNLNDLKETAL
In short: as §1

[4] = target: T4, 384 kinases from the human genome (Homo sapiens, UniProt Q8NG66); details: kinase NEK11 (Entrez NEK11)
T4 construct: purchased Eurofin/DiscoverX
T4 sequence (Q8NG66 whole entry): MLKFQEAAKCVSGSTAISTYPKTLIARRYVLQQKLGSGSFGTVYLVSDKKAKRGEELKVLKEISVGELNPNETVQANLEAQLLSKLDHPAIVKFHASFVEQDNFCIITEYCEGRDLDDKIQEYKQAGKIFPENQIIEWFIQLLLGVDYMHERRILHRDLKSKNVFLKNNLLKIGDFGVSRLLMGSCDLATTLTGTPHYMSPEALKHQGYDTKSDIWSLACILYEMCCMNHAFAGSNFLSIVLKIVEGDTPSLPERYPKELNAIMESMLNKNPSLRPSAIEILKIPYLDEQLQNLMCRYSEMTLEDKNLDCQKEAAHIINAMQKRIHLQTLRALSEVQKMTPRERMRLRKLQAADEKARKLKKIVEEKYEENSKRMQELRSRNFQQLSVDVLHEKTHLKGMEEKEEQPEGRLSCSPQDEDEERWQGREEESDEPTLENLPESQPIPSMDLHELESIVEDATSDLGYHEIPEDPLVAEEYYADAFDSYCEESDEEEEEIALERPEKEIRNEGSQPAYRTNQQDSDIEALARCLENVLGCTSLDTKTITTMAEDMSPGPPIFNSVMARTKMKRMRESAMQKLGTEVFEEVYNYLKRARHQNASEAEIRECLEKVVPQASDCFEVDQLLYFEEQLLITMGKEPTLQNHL
In short: as §1

[5] = target: T5, 384 kinases from the human genome (Homo sapiens, UniProt P51955); details: kinase NEK2 (Entrez NEK2)
T5 construct: purchased Eurofin/DiscoverX
In short: as §1

[6] = target: T6, 384 kinases from the human genome (Homo sapiens, UniProt Q9Y6M4); details: kinase CSNK1G3 (Entrez CSNK1G3)
T6 construct: purchased Eurofin/DiscoverX
In short: as §1

[7] = target: T7, 384 kinases from the human genome (Homo sapiens, UniProt Q9P1W9); details: kinase PIM2 (Entrez PIM2)
T7 construct: purchased Eurofin/DiscoverX
In short: as §1

[8] = target: T8, 384 kinases from the human genome (Homo sapiens, UniProt P48736); details: kinase PIK3CG (Entrez PIK3CG)
T8 construct: purchased Eurofin/DiscoverX
In short: as §1

[9] = target: T9, 384 kinases from the human genome (Homo sapiens, UniProt P07949); details: kinase RET (Entrez RET)
T9 construct: purchased Eurofin/DiscoverX
In short: as §1

[10] = target: T10, 384 kinases from the human genome (Homo sapiens, UniProt Q8NE63); details: kinase HIPK4 (Entrez HIPK4)
T10 construct: purchased Eurofin/DiscoverX
In short: as §1

[11] = target: T11, 384 kinases from the human genome (Homo sapiens, UniProt O00141); details: kinase SGK (Entrez SGK1)
T11 construct: purchased Eurofin/DiscoverX
T11 sequence (O00141 whole entry): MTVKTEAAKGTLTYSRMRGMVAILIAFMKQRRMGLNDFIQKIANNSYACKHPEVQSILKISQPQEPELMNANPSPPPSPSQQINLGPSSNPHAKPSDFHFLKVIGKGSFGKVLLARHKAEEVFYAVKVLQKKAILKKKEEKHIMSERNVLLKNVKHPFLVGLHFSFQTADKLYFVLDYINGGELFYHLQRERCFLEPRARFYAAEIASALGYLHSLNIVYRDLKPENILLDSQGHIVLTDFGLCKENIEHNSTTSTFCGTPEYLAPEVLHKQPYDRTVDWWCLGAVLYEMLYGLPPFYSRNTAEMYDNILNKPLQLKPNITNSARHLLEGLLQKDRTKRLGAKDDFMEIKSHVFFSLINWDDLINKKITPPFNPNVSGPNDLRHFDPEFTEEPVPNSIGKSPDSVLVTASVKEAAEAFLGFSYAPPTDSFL
In short: as §1

[12] = target: T12, 384 kinases from the human genome (Homo sapiens, UniProt Q16816); details: kinase PHKG1 (Entrez PHKG1)
T12 construct: purchased Eurofin/DiscoverX
In short: as §1

[13] = target: T13, 384 kinases from the human genome (Homo sapiens, UniProt P09619)
T13 construct: purchased Eurofin/DiscoverX
T13 sequence (P09619 33-1106): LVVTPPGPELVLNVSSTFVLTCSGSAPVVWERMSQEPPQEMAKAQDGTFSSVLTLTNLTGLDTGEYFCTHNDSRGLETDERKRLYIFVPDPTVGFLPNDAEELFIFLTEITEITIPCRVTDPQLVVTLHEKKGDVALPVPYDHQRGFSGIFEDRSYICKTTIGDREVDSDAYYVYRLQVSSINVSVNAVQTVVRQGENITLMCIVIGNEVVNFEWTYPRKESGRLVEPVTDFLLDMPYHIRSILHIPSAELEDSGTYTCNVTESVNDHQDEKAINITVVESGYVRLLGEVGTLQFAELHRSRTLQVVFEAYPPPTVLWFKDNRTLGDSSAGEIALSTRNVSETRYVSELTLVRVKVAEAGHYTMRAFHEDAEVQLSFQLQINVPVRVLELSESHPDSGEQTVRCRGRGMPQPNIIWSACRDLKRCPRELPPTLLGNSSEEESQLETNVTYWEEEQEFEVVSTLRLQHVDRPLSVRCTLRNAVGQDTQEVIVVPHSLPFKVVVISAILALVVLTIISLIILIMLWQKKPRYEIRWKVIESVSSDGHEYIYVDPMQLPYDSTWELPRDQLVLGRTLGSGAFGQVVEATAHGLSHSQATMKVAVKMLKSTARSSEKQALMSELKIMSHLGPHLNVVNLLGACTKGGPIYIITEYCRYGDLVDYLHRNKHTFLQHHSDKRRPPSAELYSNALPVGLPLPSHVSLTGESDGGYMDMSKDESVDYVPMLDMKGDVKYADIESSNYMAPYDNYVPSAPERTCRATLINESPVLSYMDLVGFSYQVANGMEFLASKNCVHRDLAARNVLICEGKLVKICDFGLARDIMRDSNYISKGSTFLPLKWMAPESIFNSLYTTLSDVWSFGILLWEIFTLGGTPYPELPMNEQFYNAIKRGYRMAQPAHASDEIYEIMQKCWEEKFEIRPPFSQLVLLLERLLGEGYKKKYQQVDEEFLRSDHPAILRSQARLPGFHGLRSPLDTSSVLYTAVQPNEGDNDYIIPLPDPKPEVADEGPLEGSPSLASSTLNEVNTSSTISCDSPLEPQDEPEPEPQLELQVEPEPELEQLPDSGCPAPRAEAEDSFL
In short: as §1

[14] = target: T14, 384 kinases from the human genome (Homo sapiens, UniProt Q5VT25); details: kinase MRCKA (Entrez CDC42BPA)
T14 construct: purchased Eurofin/DiscoverX
In short: as §1

[15] = target: T15, 384 kinases from the human genome (Homo sapiens, UniProt Q02779); details: kinase MLK2 (Entrez MAP3K10)
T15 construct: purchased Eurofin/DiscoverX
In short: as §1

[16] = target: T16, 384 kinases from the human genome (Homo sapiens, UniProt P51957); details: kinase NEK4 (Entrez NEK4)
T16 construct: purchased Eurofin/DiscoverX
T16 sequence (P51957 whole entry): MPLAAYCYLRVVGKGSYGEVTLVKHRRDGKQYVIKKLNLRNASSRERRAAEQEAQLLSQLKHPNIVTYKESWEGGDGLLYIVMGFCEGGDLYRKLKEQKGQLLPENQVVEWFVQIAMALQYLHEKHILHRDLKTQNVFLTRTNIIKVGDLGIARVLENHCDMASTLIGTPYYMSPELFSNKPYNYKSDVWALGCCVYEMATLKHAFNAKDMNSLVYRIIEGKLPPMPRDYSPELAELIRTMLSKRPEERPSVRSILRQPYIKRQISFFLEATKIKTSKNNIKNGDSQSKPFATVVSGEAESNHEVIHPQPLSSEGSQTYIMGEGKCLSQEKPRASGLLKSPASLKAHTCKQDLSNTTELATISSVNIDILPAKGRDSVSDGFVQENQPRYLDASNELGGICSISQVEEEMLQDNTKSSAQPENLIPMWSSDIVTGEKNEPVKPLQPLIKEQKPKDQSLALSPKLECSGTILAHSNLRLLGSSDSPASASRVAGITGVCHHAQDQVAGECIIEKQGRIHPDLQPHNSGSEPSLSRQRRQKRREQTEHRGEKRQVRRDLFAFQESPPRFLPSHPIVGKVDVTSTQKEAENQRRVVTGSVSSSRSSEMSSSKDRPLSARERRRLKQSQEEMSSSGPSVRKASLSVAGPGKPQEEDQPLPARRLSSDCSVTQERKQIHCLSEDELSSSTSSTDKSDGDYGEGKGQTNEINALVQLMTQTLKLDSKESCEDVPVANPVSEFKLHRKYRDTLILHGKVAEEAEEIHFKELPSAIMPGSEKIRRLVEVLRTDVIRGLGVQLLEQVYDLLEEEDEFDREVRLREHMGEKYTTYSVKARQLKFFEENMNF
In short: as §1

[17] = target: T17, 384 kinases from the human genome (Homo sapiens, UniProt Q14680); details: kinase MELK (Entrez MELK)
T17 construct: purchased Eurofin/DiscoverX
In short: as §1

[18] = target: T18, 384 kinases from the human genome (Homo sapiens, UniProt P19784); details: kinase CSNK2A2 (Entrez CSNK2A2)
T18 construct: purchased Eurofin/DiscoverX
In short: as §1

[19] = target: T19, 384 kinases from the human genome (Homo sapiens, UniProt P35590); details: kinase TIE1 (Entrez TIE1)
T19 construct: purchased Eurofin/DiscoverX
In short: as §1

[20] = target: T20, 384 kinases from the human genome (Homo sapiens, UniProt P29376); details: kinase LTK (Entrez LTK)
T20 construct: purchased Eurofin/DiscoverX
In short: as §1

[21] = target: T21, 384 kinases from the human genome (Homo sapiens, UniProt Q13464); details: kinase ROCK1 (Entrez ROCK1)
T21 construct: purchased Eurofin/DiscoverX
In short: as §1

[22] = target: T22, 384 kinases from the human genome (Homo sapiens, UniProt Q07912); details: kinase TNK2 (Entrez TNK2)
T22 construct: purchased Eurofin/DiscoverX
In short: as §1

[23] = target: T23, 384 kinases from the human genome (Homo sapiens, UniProt P06239); details: kinase LCK (Entrez LCK)
T23 construct: purchased Eurofin/DiscoverX
T23 sequence (P06239 whole entry): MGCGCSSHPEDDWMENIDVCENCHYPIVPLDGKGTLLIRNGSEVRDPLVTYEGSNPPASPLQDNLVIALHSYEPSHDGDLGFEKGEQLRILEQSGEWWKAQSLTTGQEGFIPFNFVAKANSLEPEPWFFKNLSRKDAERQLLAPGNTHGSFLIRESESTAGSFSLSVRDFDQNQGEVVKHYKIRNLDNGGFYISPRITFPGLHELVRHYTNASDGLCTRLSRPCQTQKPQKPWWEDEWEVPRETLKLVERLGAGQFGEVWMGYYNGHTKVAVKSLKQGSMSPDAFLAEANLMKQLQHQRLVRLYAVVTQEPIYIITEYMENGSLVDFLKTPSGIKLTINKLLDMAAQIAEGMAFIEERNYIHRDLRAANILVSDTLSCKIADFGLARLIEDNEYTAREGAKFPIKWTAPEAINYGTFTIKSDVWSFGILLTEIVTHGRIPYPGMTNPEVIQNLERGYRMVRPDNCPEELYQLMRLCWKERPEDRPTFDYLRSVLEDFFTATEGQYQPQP
In short: as §1

[24] = target: T24, 384 kinases from the human genome (Homo sapiens, UniProt O95819); details: kinase MAP4K4 (Entrez MAP4K4)
T24 construct: purchased Eurofin/DiscoverX
In short: as §1

[25] = target: T25, 384 kinases from the human genome (Homo sapiens, UniProt Q00535); details: kinase CDK5 (Entrez CDK5)
T25 construct: purchased Eurofin/DiscoverX
In short: as §1

[26] = target: T26, 384 kinases from the human genome (Homo sapiens, UniProt Q7L7X3); details: kinase TAOK1 (Entrez TAOK1)
T26 construct: purchased Eurofin/DiscoverX
In short: as §1

T1 sequence (P48730 whole entry): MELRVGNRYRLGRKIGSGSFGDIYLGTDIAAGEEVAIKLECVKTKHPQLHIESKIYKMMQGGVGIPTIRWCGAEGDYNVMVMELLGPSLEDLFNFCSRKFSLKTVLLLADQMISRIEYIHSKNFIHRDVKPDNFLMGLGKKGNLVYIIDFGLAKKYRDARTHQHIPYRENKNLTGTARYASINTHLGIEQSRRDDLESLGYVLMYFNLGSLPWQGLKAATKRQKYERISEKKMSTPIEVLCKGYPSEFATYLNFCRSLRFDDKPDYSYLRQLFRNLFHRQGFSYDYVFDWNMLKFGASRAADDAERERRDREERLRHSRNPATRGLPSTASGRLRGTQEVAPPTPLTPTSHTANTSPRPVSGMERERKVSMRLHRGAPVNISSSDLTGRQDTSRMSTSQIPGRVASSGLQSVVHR

SMILES: CC(C)C(=O)N1CCN(c2ccc(NC(=O)c3cc4ccccc4o3)cc2Cl)CC1 [Compound 21]
- Percent Control [1]: 86%
- Percent Control [2]: 90%
- Percent Control [3]: 89%
- Percent Control [4]: 97%
- Percent Control [5]: 91%
- Percent Control [6]: 100%
- Percent Control [7]: 100%
- Percent Control [8]: 100%
- Percent Control [9]: 83%
- Percent Control [10]: 100%
- Percent Control [11]: 100%
- Percent Control [12]: 87%
- PDGFRB binding to its ligand affected ([13]; 10 µM of 21, compared to DMSO (100%)): more than 90%
- Percent Control ([13]; kinase PDGFRB (Entrez PDGFRB)): 2.6%
- Percent Control [14]: 68%
- Percent Control [15]: 96%
- Percent Control [16]: 98%
- Percent Control [17]: 29%
- Percent Control [18]: 92%
- Percent Control [19]: 100%
- Percent Control [20]: 90%
- Percent Control [21]: 88%
- Percent Control [22]: 68%
- Percent Control [23]: 97%
- Percent Control [24]: 66%
- Percent Control [25]: 94%
- Percent Control [26]: 100%
